Entries after “also recorded” stand apart in the source; their conditions may differ.
Key:
[1] = system: peptide-pulsed C1R-A33 cells; assay: IFN-gamma ELISPOT assay of peptide-induced CTLs (HLA-A*3303); type: cell-based, human; settings: CTLs induced from HLA-A*3303-positive donors, peptide-pulsed C1R-A33 vs control
Description: Monocyte-derived dendritic cells (DCs) were used as the antigen-presenting cell to induce a cytotoxic T lymphocyte (CTL) response against peptides presented on human leukocyte antigens (HLAs). As described in the other sections, DCs were generated in vitro (Nakahara S et al., Cancer Res 2003, 63(14): 4112-8). Specifically, peripheral-blood mononuclear cells isolated from healthy volunteers (HLA-A*3303-positive) with the Ficoll-Paque plus solution (Pharmacia) were separated by attaching to plastic tissue culture dishes (Becton Dickinson) and concentrated as a monocyte fraction. The monocyte-concentrated population was cultured in the presence of 1000 IU/ml granulocyte macrophage colony-stimulating factor (R&D System) and 1000 IU/ml interleukin(IL)-4 (R&D System) in an AIM-V medium (Invitrogen) containing 2% heat-inactivated autologous serum (AS). After seven days of culturing, the cytokine-induced DCs were pulsed with 20 micro-g/ml each of the synthesized peptides in an AIM-V medium at 37 degrees C. for three hours in the presence of 3 micro-g/ml beta 2-microglobulin. The generated cells appeared to express on their cell surface DC-associated molecules such as CD80, CD83, CD86 and HLA class II (data not shown). Next, these peptide-pulsed DCs were inactivated by X-ray irradiation (20 Gy), and mixed in a 1:20 ratio with autologous CD8^+ T cells obtained by positive selection using the CD8 Positive Isolation Kit (Dynal). These culture products were seeded in a 48-well plate (Corning). Each well was made to contain 1.5×10^4 peptide-pulsed DCs, 3×10^5 CD8^+ T cells and 10 ng/ml IL-7 (R&D System) in 0.5 ml of the AIM-V/2% AS medium. Three days later, these culture products were added with a final concentration of 20 IU/ml IL-2 (CHIRON). On day 7 and day 14, T cells were further stimulated with peptide-pulsed autologous DCs. The DCs were prepared every time by the same method as above. On day 21, after the third peptide stimulation, CTLs were examined against the peptide-pulsed CIR-A33 cell by a human interferon (IFN)-gamma enzyme-linked immunospot (ELISPOT) assay (Tanaka H et al., Br J Cancer 2001, 84(1): 94-9; Umano Y et al., Br J Cancer 2001, 84(8): 1052-7; Uchida N et al., Clin Cancer Res 2004, 10(24): 8577-86; Suda T et al., Cancer Sci 2006, 97(5): 411-9; Watanabe T et al., Cancer Sci 2005, 96(8): 498-506).
(§1) Specifically, peptide-pulsed C1R-A33 (1×10^4 cells/well) was prepared as the stimulator cell. The induced CTLs, i.e., CTL lines and CTL clones, were used as the responder cell. The IFN-gamma ELISPOT assay and IFN-gamma ELISA were performed according to the manufacturer's manual.

[2] = system: COS7 cells transfected with CDCA1 and HLA-A*3303; assay: Specific CTL activity against target cells expressing CDCA1 and HLA-A*3303; type: cell-based, African green monkey; settings: listed as CDCA1-A33-9-43
Description: A cDNA encoding the open-reading frame of a target gene or HLA-A*3303 was amplified by PCR. The PCR-amplified product was cloned into an expression vector. Either or both of the target gene-expressing vector and the HLA-A*3303-expressing vector were transfected into COS7, which is a cell line negative for the target gene and HLA, using Lipofectamine 2000 (Invitrogen) following the manufacturer's recommended protocol. Two days after transfection, the transfected cells were harvested using versene (Invitrogen), and used as the target cell for CTL activity assay (5×10^4 cells/well).
The CTL clone established against CDCA1-A33-9-43 (SEQ ID NO: 27) was investigated for its ability to recognize target cells expressing CDCA1 and the HLA-A*3303 molecule. COS7 cells transfected with both full-length CDCA1 and the HLA-A*3303 gene (a specific model of target cells expressing CDCA1 and the HLA-A*3303 gene) were prepared as the target cell. COS7 cells transfected with either full-length CDCA1 or HLA-A*3303 were prepared as the control.

peptide-pulsed C1R-A33 = assay: IFN-gamma ELISA of CTL lines and CTL clones (HLA-A*3303); type: cell-based, human
Protocol: CTLs were propagated in culture using methods similar to those disclosed by Riddell et al. (Walter E A et al., N Engl J Med 1995, 333(16): 1038-44; Riddell S R et al., Nat Med 1996, 2(2): 216-23). The CTLs were co-cultured in a total of 25 ml AIM-V medium containing 5% AS (AIM-V/5% AS) and 40 ng/ml anti-CD3 antibody with two types of Mitomycin C-treated human B lymphoblastoid cell lines at 5×10^6 cells/flask. One day after beginning of the culturing, 120 IU/ml IL-2 was added to the culture. On days 5, 8 and 11, a fresh AIM-V/5% AS medium containing 30 IU/ml IL-2 was added to the culture (Tanaka H et al., Br J Cancer 2001, 84(1): 94-9; Umano Y et al., Br J Cancer 2001, 84(8): 1052-7; Uchida N et al., Clin Cancer Res 2004, 10(24): 8577-86; Suda T et al., Cancer Sci 2006, 97(5): 411-9; Watanabe T et al., Cancer Sci 2005, 96(8): 498-506).
Dilution of CTLs was carried out to make 0.3, 1 and 3 cells/well in 96 round-bottomed microtiter plates (Nalge Nunc International). The CTLs were co-cultured with two types of Mitomycin C-treated human B lymphoblastoid cell lines at 1×10^4 cells/well in a total of 150 micro-l/well AIM-V/5% AS medium with 30 ng/ml anti-CD3 antibody and 125 IU/ml IL-2. Ten days later, IL-2 was added to the medium at 50 micro-l/well to reach a final concentration of 125 IU/ml. On day 14, the CTL activity was tested, and the CTL clones were propagated using the same method as described above (Uchida N et al., Clin Cancer Res 2004, 10(24): 8577-86; Suda T et al., Cancer Sci 2006, 97(5): 411-9; Watanabe T et al., Cancer Sci 2005, 96(8): 498-506).
as §1

EVLHMIYMR (a peptide derived from CDCA1) [SEQ ID NO: 27]
peptide-specific CTL activity (IFN-gamma production) [1]: potent IFN-gamma production | specific CTL activity of CTL clone ([2]; COS7 cells transfected with both CDCA1 and HLA-A*3303): specific CTL activity; also recorded: potent CTL activity | specific CTL activity of CTL clone against control cells ([2]; COS7 cells transfected with either full-length CDCA1 or HLA-A*3303): a significant specific CTL activity was not shown; also recorded: a significant specific CTL activity was not detected | IFN-gamma production of CTL clones (peptide-pulsed C1R-A33; CTL clones by limiting dilution, peptide-pulsed C1R-A33, listed as CDCA1-A33-9-43): Potent IFN-gamma production | IFN-gamma production of CTL lines (peptide-pulsed C1R-A33; CTL lines, peptide-pulsed vs non-pulsed target cells, HLA-A*3303): potent IFN-gamma production

— US10676514B2, “CDCA1-derived peptide and vaccine containing same” (ONCOTHERAPY SCIENCE, INC., priority 2014, dated 2020)
